Nine molecules from patent US10023591B2, “Heterocyclic derivatives and use thereof” (C&C RESEARCH LABORATORIES, priority 2014, dated 2018) can be followed below.

The test system of assay [1] is NCI-N87 stomach cancer cell line. Briefly: Cell growth inhibition assay, NCI-N87 (CellTiter-Glo). The format is cell-based. As to conditions: Homo sapiens; NCI-N87, 5,000 cells/well, 96 hours. In short, it runs like this: (§1)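 Cells seeded at 3,000 (DU-145), 5,000 (NCI-N87) or 10,000 (LNCaP, MDA-MB-468) per well, LNCaP in medium with 10 ng/mL IL-6. Serially diluted compound for 96 h at 37 °C (MDA-MB-468 in air, others 5% CO2); viability by CellTiter-Glo luminescence versus 0.1% DMSO wells.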
For orientation: In ATP-based viability assays light output follows the ATP content of the culture.

Assay [2] has as its system STAT3. Put plainly: STAT3 reporter gene assay (luciferase), LNCaP stable cell line pSTAT3-TA-luc, IL-6 stimulation. The format is cell-based, human. As to conditions: Homo sapiens. In short, it runs like this: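 LNCaP cells stably carrying pSTAT3-TA-luc were plated 24 h in 3% DCC-FBS medium, then given compound followed by IL-6 (10 ng/mL final) for 24 h at 37 °C. Luciferase was read from lysates, with CellTiter-Glo viability on a duplicate plate. Stimulated 0.1% DMSO wells served as uninhibited control.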

Assay [3] has as its system MDA-MB-468 breast cancer cell line. Briefly: Cell growth inhibition assay, MDA-MB-468 (CellTiter-Glo). The format is cell-based. Conditions: Homo sapiens, MDA-MB-468, 96 hours. As to the method: The inhibitory effects of the compounds of the present invention against the growth of cancer cells were evaluated as shown below. The cancer cell lines including prostate cancer cell lines (LNCaP, DU-145), stomach cancer cell line (NCI-N87), and breast cancer cell lines (MDA-MB-468) were cultured under the protocol provided by each supplier. A medium supplemented with 10 ng/mL of IL-6 was used for LNCaP, a prostate cancer cell line, when treated with a drug. Each type of cells to be used in experiments was sub-cultured in a 96-well plate by counting the exact number of cells using Tali™ Image-based Cytometer (Life Technologies). In a 96-well plate, DU-145 was employed with 3,000 cells/well; NCI-N87 was employed with 5,000 cells/well; and LNCaP and MDA-MB-468 were employed with 10,000 cells/well. The cells were treated with the compounds listed in Examples which were diluted in various concentrations. Upon completion of the compounds treatment, LNCaP, DU-145, NCI-N87 cells were cultured at 37° C. under 5% CO2 for 96 hours, and MDA-MB-468 cells were cultured at 37° C. in air for 96 hours. Subsequently, the cells were observed under microscope and drug precipitation and particular findings were investigated and recorded. And then, the 96-well plate was placed at room temperature for 30 minutes, added with 20 pt/well of CellTiter-Glo solution (Cat No. G7573, Promega) and shaken for 10 minutes, followed by being subjected to the measurement using PHERAstar™ microplate reader (BMG LABTECH) according to the supplier's general luminometer protocol. Wells where only culture liquid added without cell plating were used as a negative control, whereas wells where culture liquid containing 0.1% DMSO instead of the compounds listed in Examples were used as a positive control.

Assay [4] has as its system STAT1. Briefly: STAT1 reporter gene assay (luciferase), U2OS stable cell line pGL4-STAT1-TA-luc, IFN-γ stimulation. The format is cell-based, human. As to conditions: Homo sapiens, IFN-γ 50 ng/mL, 8 hours, read-out: IC50 (μM) pSTAT1. In short, it runs like this: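 U2OS cells stably carrying a STAT1-driven luciferase reporter were treated with serially diluted compounds plus IFN-γ (50 ng/mL final) for 8 h at 37 °C in 10% FBS medium. Luciferase read after lysis; parallel plate assessed for cytotoxicity by CellTiter-Glo.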

In assay [5] the test system is DU-145 prostate cancer cell line. Put plainly: Cell growth inhibition assay, DU-145 (CellTiter-Glo). The format is cell-based. As to conditions: Homo sapiens; DU-145, 3,000 cells/well, 96 hours. In short, it runs like this:
as §1

For assay [6], the system named is LNCaP prostate cancer cell line. Briefly: Cell growth inhibition assay, LNCaP (CellTiter-Glo). The format is cell-based. As to conditions: Homo sapiens; LNCaP, 10,000 cells/well, medium with 10 ng/mL IL-6, 96 hours. Summed up:
as §1

Molecules are shown by their SMILES. Some results are limits rather than exact numbers.

By IC50 is commonly meant the concentration that gives 50% inhibition. As to `CC(C)(c1ccc2sc(C(=O)Nc3cc(Cl)nc(Oc4cccc(Cl)c4)c3)cc2c1)S(C)(=O)=O` [Example 80, N-(2-chloro-6-(3-chlorophenoxy)pyridin-4-yl)-5-(2-(methylsulfonyl)propan-2-yl)benzo[b]thiophene-2-carboxamide], the IC50 in assay [1] is 0.069 µM; in assay [2], 0.04 µM; in assay [3], 0.0084 µM; in assay [4], > 50 µM.
As for `Cc1cnc(Oc2cc(NC(=O)c3cc4cc(C(C)(C)S(C)(=O)=O)ccc4s3)cc(Cl)n2)s1` [Example 109, N-(2-chloro-6-((5-methylthiazol-2-yl)oxy)pyridin-4-yl)-5-(2-(methylsulfonyl)propan-2-yl)benzo[b]thiophene-2-carboxamide], the IC50 in assay [1] is 1.7 µM; in assay [2], 0.46 µM; in assay [3], 0.068 µM; in assay [4] it was > 50 µM.
Take `CC(C)(c1ccc2sc(C(=O)Nc3cc(Cl)nc(Oc4ccc(Cl)c(F)c4)c3)cc2c1)S(C)(=O)=O` [Example 72, N-(2-chloro-6-(4-chloro-3-fluorophenoxy)pyridin-4-yl)-5-(2-(methylsulfonyl)propan-2-yl)benzo[b]thiophene-2-carboxamide]: the IC50 in assay [1] was 0.021 µM; in assay [2], 0.01 µM; in assay [3] it was 0.004 µM; in assay [4], > 50 µM.
Take `CC(C)(c1ccc2sc(C(=O)Nc3cc(Cl)nc(Oc4ccc(Cl)cc4F)c3)cc2c1)S(C)(=O)=O` [Example 83, N-(2-chloro-6-(4-chloro-2-fluorophenoxy)pyridin-4-yl)-5-(2-(methylsulfonyl)propan-2-yl)benzo[b]thiophene-2-carboxamide]: the IC50 in assay [1] was 0.02 µM; in assay [2], 0.0082 µM; in assay [3] it was 0.0052 µM; in assay [4] it was > 50 µM.
In the case of `Cc1onc(Oc2cc(NC(=O)c3cc4cc(C(C)(C)S(C)(=O)=O)ccc4s3)cc(Cl)n2)c1C` [Example 116, N-(2-chloro-6-((4,5-dimethylisoxazol-3-yl)oxy)pyridin-4-yl)-5-(2-(methylsulfonyl)propan-2-yl)benzo[b]thiophene-2-carboxamide], the IC50 in assay [1] is 0.91 µM; in assay [2] it was 0.2 µM; in assay [3], 0.062 µM; in assay [4] it was > 50 µM.
On to `CC(C)(c1ccc2sc(C(=O)Nc3cc(Cl)nc(Oc4ccc(C(F)(F)F)cc4)c3)cc2c1)S(C)(=O)=O` [Example 67, N-(2-chloro-6-(4-(trifluoromethyl)phenoxy)pyridin-4-yl)-5-(2-(methylsulfonyl)propan-2-yl)benzo[b]thiophene-2-carboxamide], for which the IC50 in assay [1] is 0.021 µM; in assay [2], 0.0084 µM; in assay [5] it was 0.0053 µM; in assay [6] it was 0.047 µM; in assay [4], > 50 µM.
In the case of `CC(C)(c1ccc2sc(C(=O)Nc3cc(Cl)cc(Oc4ccc(OC(F)(F)F)cc4)c3)cc2c1)S(C)(=O)=O` [Example 37, N-(3-chloro-5-(4-(trifluoromethoxy)phenoxy)phenyl)-5-(2-(methylsulfonyl)propan-2-yl)benzo[b]thiophene-2-carboxamide], the IC50 is 0.015 µM in assay [2], 0.0071 µM in assay [5], 0.01 µM in assay [6] and > 50 µM in assay [4].
Turning to `CC(C)(c1ccc2sc(C(=O)Nc3cc(Cl)cc(Oc4ccc(C(F)(F)F)cc4)c3)cc2c1)S(C)(=O)=O` [Example 38, N-(3-chloro-5-(4-(trifluoromethyl)phenoxy)phenyl)-5-(2-(methylsulfonyl)propan-2-yl)benzo[b]thiophene-2-carboxamide], the IC50 is 0.018 µM in assay [2], 0.0053 µM in assay [5], 0.0083 µM in assay [6] and > 50 µM in assay [4].
In the case of `CC(C)(c1cc2cc(C(=O)Nc3cc(Cl)cc(Oc4ccc(Cl)cc4)c3)sc2cc1Cl)S(C)(=O)=O` [Example 45, 6-chloro-N-(3-chloro-5-(4-chlorophenoxy)phenyl)-5-(2-(methylsulfonyl)propan-2-yl)benzo[b]thiophene-2-carboxamide], the IC50 is 0.078 µM in assay [2], 0.037 µM in assay [5], 0.53 µM in assay [6] and > 50 µM in assay [4].
